Reference: ChEMBL document CHEMBL4376816, “Discovery of the Oral Leukotriene C4 Synthase Inhibitor (1S,2S)-2-({5-[(5-Chloro-2,4-difluorophenyl)(2-fluoro-2-methylpropyl)amino]-3-methoxypyrazin-2-yl}carbonyl)cyclopropanecarboxylic Acid (AZD9898) as a New Treatment for Asthma” (J Med Chem, 2019)

Target: T1, A-type voltage-gated potassium channel KCND3 (Homo sapiens, UniProt Q9UK17)
T1 sequence (Q9UK17 whole entry): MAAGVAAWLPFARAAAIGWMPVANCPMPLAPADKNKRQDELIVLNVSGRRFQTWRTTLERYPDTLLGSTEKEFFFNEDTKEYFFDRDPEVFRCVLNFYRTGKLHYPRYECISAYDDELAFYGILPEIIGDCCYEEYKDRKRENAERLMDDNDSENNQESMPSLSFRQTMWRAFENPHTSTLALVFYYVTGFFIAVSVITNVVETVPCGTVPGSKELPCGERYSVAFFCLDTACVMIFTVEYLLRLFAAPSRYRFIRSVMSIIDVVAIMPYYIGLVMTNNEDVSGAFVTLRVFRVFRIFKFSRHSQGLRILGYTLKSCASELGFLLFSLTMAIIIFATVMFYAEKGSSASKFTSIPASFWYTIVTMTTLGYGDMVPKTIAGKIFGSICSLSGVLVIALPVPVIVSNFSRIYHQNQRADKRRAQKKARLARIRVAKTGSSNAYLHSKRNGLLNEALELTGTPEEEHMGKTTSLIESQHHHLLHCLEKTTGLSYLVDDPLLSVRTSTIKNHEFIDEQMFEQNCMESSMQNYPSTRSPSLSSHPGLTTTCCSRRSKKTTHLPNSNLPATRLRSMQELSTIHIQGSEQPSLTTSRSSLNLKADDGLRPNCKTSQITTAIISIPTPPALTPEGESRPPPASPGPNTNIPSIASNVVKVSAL
Assay: Inhibition of human Kv4.3 expressed in CHOK1 cells at < 33 uM at -80 mV holding potential by Ionwork-based analysis; call rule not given here
Type: cell-based

COc1nc(N(CC(C)(C)F)c2cc(Cl)c(F)cc2F)cnc1C(=O)[C@H]1C[C@@H]1C(=O)O [AZD-9898]
inhibition (INH): Not Active
